Converted amounts (≈) assume the structure as drawn.
How the values were obtained:
Assay type in all cases: functional
[1] = tested on: Aspergillus niger; experiment: Antifungal activity against Aspergillus niger MTCC 282 after 72 hr; settings: MTCC 282, 72 h
[2] = tested on: Escherichia coli; experiment: Antibacterial activity against Escherichia coli MTCC 443 after 24 to 48 hr by serial dilution method
[3] = tested on: Staphylococcus aureus; experiment: Antibacterial activity against Staphylococcus aureus MTCC 96 after 24 to 48 hr by serial dilution method
[4] = tested on: Aspergillus clavatus; experiment: Antifungal activity against Aspergillus clavatus MTCC 1323 after 72 hr; settings: MTCC 1323, 72 h
[5] = tested on: Pseudomonas aeruginosa; experiment: Antibacterial activity against Pseudomonas aeruginosa MTCC 1688 after 24 to 48 hr by serial dilution method
[6] = tested on: Streptococcus pyogenes; experiment: Antibacterial activity against Streptococcus pyogenes MTCC 442 after 24 to 48 hr by serial dilution method
[7] = tested on: Candida albicans; experiment: Antifungal activity against Candida albicans MTCC 227 after 72 hr; settings: MTCC 227, 72 h

C/C(=N\n1c(/N=C/c2cccc([N+](=O)[O-])c2)c(C#N)c(-c2ccccc2O)c(C#N)c1=O)c1nc2ccccc2[nH]1 showed an MIC99 [1] of 1000 µg/mL (≈ 1840 µM), an MIC99 [2] of 500 µg/mL (≈ 922 µM) and an MIC99 [3] of 200 µg/mL (≈ 369 µM). For the same molecule, the MIC99 [4] was 1000 µg/mL (≈ 1840 µM), the MIC99 [5] was 500 µg/mL (≈ 922 µM) and the MIC99 [6] was 200 µg/mL (≈ 369 µM). For the same molecule, the MIC99 [7] was 500 µg/mL (≈ 922 µM).

C/C(=N\n1c(/N=C/c2ccc([N+](=O)[O-])cc2)c(C#N)c(-c2ccccc2O)c(C#N)c1=O)c1nc2ccccc2[nH]1 was tested, and the MIC99 [1] was 1000 µg/mL (≈ 1840 µM), the MIC99 [2] was 250 µg/mL (≈ 461 µM) and the MIC99 [3] was 250 µg/mL (≈ 461 µM). It also gave an MIC99 [4] of 1000 µg/mL (≈ 1840 µM), an MIC99 [5] of 250 µg/mL (≈ 461 µM) and an MIC99 [6] of 250 µg/mL (≈ 461 µM). The MIC99 [7] was 500 µg/mL (≈ 922 µM).

For C/C(=N\n1c(/N=C/c2ccccc2Cl)c(C#N)c(-c2ccccc2O)c(C#N)c1=O)c1nc2ccccc2[nH]1, the MIC99 [1] was 100 µg/mL (≈ 188 µM), the MIC99 [2] was 250 µg/mL (≈ 470 µM) and the MIC99 [3] was 100 µg/mL (≈ 188 µM). The MIC99 [4] was 1000 µg/mL (≈ 1880 µM), the MIC99 [5] was 25 µg/mL (≈ 47 µM) and the MIC99 [6] was 250 µg/mL (≈ 470 µM). The MIC99 [7] was 1000 µg/mL (≈ 1880 µM).

In the case of C/C(=N\n1c(/N=C/c2ccc(Cl)cc2)c(C#N)c(-c2ccccc2O)c(C#N)c1=O)c1nc2ccccc2[nH]1, the MIC99 [1] is reported as 1000 µg/mL (≈ 1880 µM), the MIC99 [2] is reported as 100 µg/mL (≈ 188 µM) and the MIC99 [3] is reported as 100 µg/mL (≈ 188 µM). The MIC99 [4] was 1000 µg/mL (≈ 1880 µM), the MIC99 [5] was 250 µg/mL (≈ 470 µM) and the MIC99 [6] was 250 µg/mL (≈ 470 µM). It also gave an MIC99 [7] of 500 µg/mL (≈ 940 µM).

With C/C(=N\n1c(/N=C/c2ccc(N(C)C)cc2)c(C#N)c(-c2ccccc2O)c(C#N)c1=O)c1nc2ccccc2[nH]1 the MIC99 [1] was 500 µg/mL (≈ 925 µM), the MIC99 [2] was 62.5 µg/mL (≈ 116 µM) and the MIC99 [3] was 100 µg/mL (≈ 185 µM). It also gave an MIC99 [4] of 500 µg/mL (≈ 925 µM), an MIC99 [5] of 100 µg/mL (≈ 185 µM) and an MIC99 [6] of 100 µg/mL (≈ 185 µM). For the same molecule, the MIC99 [7] was 200 µg/mL (≈ 370 µM).

COc1cc(/C=N/c2c(C#N)c(-c3ccccc3O)c(C#N)c(=O)n2/N=C(\C)c2nc3ccccc3[nH]2)ccc1O gave an MIC99 [1] of 1000 µg/mL (≈ 1840 µM), an MIC99 [2] of 200 µg/mL (≈ 368 µM) and an MIC99 [3] of 250 µg/mL (≈ 460 µM). It also gave an MIC99 [4] of 1000 µg/mL (≈ 1840 µM), an MIC99 [5] of 100 µg/mL (≈ 184 µM) and an MIC99 [6] of 250 µg/mL (≈ 460 µM). It also gave an MIC99 [7] of 1000 µg/mL (≈ 1840 µM).

COc1cc(/C=N/c2c(C#N)c(-c3ccccc3O)c(C#N)c(=O)n2/N=C(\C)c2nc3ccccc3[nH]2)cc(OC)c1OC showed an MIC99 [1] of 1000 µg/mL (≈ 1700 µM), an MIC99 [2] of 200 µg/mL (≈ 340 µM) and an MIC99 [3] of 250 µg/mL (≈ 425 µM). The MIC99 [4] was 100 µg/mL (≈ 170 µM), the MIC99 [5] was 250 µg/mL (≈ 425 µM) and the MIC99 [6] was 500 µg/mL (≈ 851 µM). It also gave an MIC99 [7] of 1000 µg/mL (≈ 1700 µM).

For C/C(=N\n1c(/N=C/c2ccccc2)c(C#N)c(-c2ccccc2O)c(C#N)c1=O)c1nc2ccccc2[nH]1, the MIC99 [1] was 100 µg/mL (≈ 201 µM), the MIC99 [2] was 100 µg/mL (≈ 201 µM) and the MIC99 [3] was 250 µg/mL (≈ 502 µM). It also gave an MIC99 [4] of 200 µg/mL (≈ 402 µM), an MIC99 [5] of 50 µg/mL (≈ 100 µM) and an MIC99 [6] of 100 µg/mL (≈ 201 µM). For the same molecule, the MIC99 [7] was 200 µg/mL (≈ 402 µM).

In the case of C/C(=N\n1c(/N=C/c2ccccc2O)c(C#N)c(-c2ccccc2O)c(C#N)c1=O)c1nc2ccccc2[nH]1, the MIC99 [1] is reported as 1000 µg/mL (≈ 1950 µM), the MIC99 [2] is reported as 150 µg/mL (≈ 292 µM) and the MIC99 [3] is reported as 200 µg/mL (≈ 389 µM). For the same molecule, the MIC99 [4] was 1000 µg/mL (≈ 1950 µM), the MIC99 [5] was 150 µg/mL (≈ 292 µM) and the MIC99 [6] was 200 µg/mL (≈ 389 µM). It also gave an MIC99 [7] of 500 µg/mL (≈ 974 µM).

C/C(=N\n1c(/N=C/c2cccc(O)c2)c(C#N)c(-c2ccccc2O)c(C#N)c1=O)c1nc2ccccc2[nH]1 was tested, and the MIC99 [1] was 1000 µg/mL (≈ 1950 µM), the MIC99 [2] was 250 µg/mL (≈ 487 µM) and the MIC99 [3] was 200 µg/mL (≈ 389 µM). It also gave an MIC99 [4] of 1000 µg/mL (≈ 1950 µM), an MIC99 [5] of 250 µg/mL (≈ 487 µM) and an MIC99 [6] of 500 µg/mL (≈ 974 µM). It also gave an MIC99 [7] of 500 µg/mL (≈ 974 µM).

Work on C/C(=N\n1c(/N=C/c2ccc(O)cc2)c(C#N)c(-c2ccccc2O)c(C#N)c1=O)c1nc2ccccc2[nH]1 yielded an MIC99 [1] of 1000 µg/mL (≈ 1950 µM), an MIC99 [2] of 150 µg/mL (≈ 292 µM) and an MIC99 [3] of 250 µg/mL (≈ 487 µM). For the same molecule, the MIC99 [4] was 100 µg/mL (≈ 195 µM), the MIC99 [5] was 150 µg/mL (≈ 292 µM) and the MIC99 [6] was 50 µg/mL (≈ 97.4 µM). The MIC99 [7] was 500 µg/mL (≈ 974 µM).

CC1(C)S[C@@H]2[C@H](NC(=O)[C@H](N)c3ccccc3)C(=O)N2[C@H]1C(=O)O [AMPICILLIN] was tested, and the MIC99 [2] was 100 µg/mL (≈ 286 µM), the MIC99 [3] was 250 µg/mL (≈ 715 µM) and the MIC99 [5] was 100 µg/mL (≈ 286 µM). For the same molecule, the MIC99 [6] was 100 µg/mL (≈ 286 µM).

With COC1=CC(=O)C[C@@H](C)[C@]12Oc1c(Cl)c(OC)cc(OC)c1C2=O [GRISEOFULVIN] the MIC99 [1] was 100 µg/mL (≈ 283 µM), the MIC99 [4] was 100 µg/mL (≈ 283 µM) and the MIC99 [7] was 500 µg/mL (≈ 1420 µM).
